Results from patent US20090280096A1, “PANCREATIC ENDOCRINE PROGENITOR CELLS DERIVED FROM PLURIPOTENT STEM CELLS” (priority 2008, published 2009).

How the values were obtained:
[1] = system: pancreatic EBs induced by Pdx1 and Ngn3 (Tet-pdx1/ngn3 ES cells); test: C-peptide secretion assay (RIA) of EBs stimulated with secretagogues; type: cell-based, mouse; details: floating EBs with Dox, SFD without N2 and RA, stimulated 1 hour in HKRB buffer; for stimulation of C-peptide secretion: KCl 30 mM, Forskolin 10 μM, IBMX 0.5 mM; for response of C-peptide secretion to stimulation: glucose 20 mM, tolbutamide 100 μM
Protocol: Tet-pdx1/ngn3 ES cells were cultured in SFD conditions. Pdx1 and Ngn3 expression was induced with (Dox+) or without (Dox−) Dox after day 4, and cells were harvested at the indicated time points. (A) CXCR4/c-kit^−/− or CXCR4/c-kit^+/+ cells were sorted in day 4 EBs by using a FACS sorter. Sorted cells were reaggregated and replated at day 6 on gelatin coated plates. EBs were harvested at day 9. Ins1 mRNA levels were quantified by real time PCR and normalized to the 18S mRNA levels. (B) N2 media was added to or omitted from the SFD media for days 0-14. B27, with or without retinoic acid (RA), was combined in SFD for days 0-4 and for day 4-14 (also +/−N2). Ins1 mRNA levels were quantified by real time PCR and normalized to the 18S mRNA levels. (C) Tet-pdx1/ngn3 ES cells were cultured in SFD condition without N2 and RA for 18 days. Cytoplasmic insulin was stained and analyzed by FACS. (D) Floating EBs were cultured in SFD without N2 and RA for 18 days, with or without Dox. EBs were incubated in SFD without N2 and RA for 24 hours and supernatants were harvested. C-peptide, glucagon and somatostatin were measured by RIA or EIA. (E) Floating EBs were cultured in SFD without N2 and RA for 19 days and then were unstimulated or stimulated with KCl (3 or 30 mM), glucose (20 mM), tolbutaminde (100 μM), Forskolin (10 μM) or IBMX (0.5 mM) in HKRB buffer for 1 hour. Supernatants were harvested and C-peptide was measured by RIA.
After culturing EBs for 17-18 days in SFD conditions without N2 and RA with or without Dox (1 μg/ml) as described above, the medium was changed to fresh SFD media containing 2 mM glutamine. The EBs were then incubated for 24 hours as indicated, and the conditioned medium was collected for assay. Concentrations of glucagon and somatostatin in the conditioned medium were measured using enzyme immunoassays (EIAs) specific to glucagon (Yanaihara) or somatostatin (Phoenix Pharmaceuticals) according the manufacturer's instructions. C-peptide was measured by radioimmunoassay (RIA) specific to C-peptide (Linco). For C-peptide secretion assay, day 18 EBs were washed with media were incubated in HEPES-balanced Krebs-Ringer bicarbonate (HKRB) buffer (20 mM HEPES, 103 mM NaCl, 4.8 mM KCl, 0.5 mM CaCl2, 1.2 mM MgSO4, 1.2 mM KH2PO4, 25 mM NaHCO3, 2 mM glucose, pH 7.4) with or without stimulations for 1 hour. C-peptide in the supernatant was measured by a specific RIA. Total protein amounts of EBs in each sample were evaluated by BCA assay and secretion levels for C-peptide, glucagons and somatostatin were adjusted by protein amount.
To evaluate pancreatic hormone secretion, pancreatic EBs were cultured in SFD without N2 and RA for 16-18 days and then EBs were incubated in fresh SFD media for 24 hours. The secretion of pancreatic hormones such as C-peptide, glucagon and somatostatin in the supernatant was evaluated by RIA or EIA. C-peptide, somatostatin and glucagons were not detected in EBs without Dox stimulation. […] Stimulation of C-peptide secretion by treating endocrine progenitor cells with different agents for one hour was also evaluated (FIG. 6E). C-peptide secretion increased around five fold by the addition of 30 mM potassium chloride (KCl). Forskolin and IBMX, which increase intracellular cAMP, also stimulated C-peptide secretion around 2 fold and 3 fold, respectively. No response to glucose or the inhibitors of KATP channel, glibenclamide and tolbutamide, was detected.

[2] = system: Ins1 mRNA in Tet-pdx1/ngn3 Ainv ES cell-derived EBs; test: Ins1 mRNA by real time PCR in EBs cultured in SFD conditions; type: cell-based, mouse; details: BMP4 (50 ng/ml) for days 4-6 with Dox, EBs harvested at day 9
Protocol: Tet-pdx1/ngn3 ES cells were cultured in SFD conditions. Pdx1 and Ngn3 expression was induced with (Dox+) or without (Dox−) Dox after day 4 and cells were harvested at the indicated time points. (A, B) Ins1 mRNA levels were quantified by a real time PCR and normalized to the 18S mRNA levels. A. Day 4 EBs were trypsinized and reaggregated with (closed circles) or without BMP4 (open squares) for days 4-6. EBs were harvested at days 6 and 9. B. At day 6, EBs were replated on gelatin coated dishes and floating EBs were transferred to low-cluster dishes at day 7. Attached monolayer EBs (open bars) and floating EBs (closed bars) were harvested at day 9. (C, D) Floating EBs were cultured in SFD conditions with (closed circles) or without (open squares) Dox. Ins1 (C) or Ins2 (D) mRNA levels were quantified by a real time PCR and normalized to the 18S mRNA levels.
For a real time PCR, commercially available assay mixes (Applied Biosystems) for Ins1 (Mm01259683_g1), Ins2 (Mm0731595_gH) and 18S (Hs99999901_s1) were used to quantify mRNA levels, and PCR was performed using a Prism 7700 Sequence Detector (Applied Biosystems). […]
Tet-pdx1/ngn3 Ainv ES cells were cultured in SFD for 2 days and then activin was added for days 2-4 to induce endoderm differentiation. […] Without Dox treatment, Ins1 mRNA was not detected at day 6 or day 9. […]

| Molecule | stimulation of C-peptide secretion [1] | response of C-peptide secretion to stimulation [1] | other results |
| --- | --- | --- | --- |
| C=C[C@@]1(C)CC(=O)[C@]2(O)[C@@]3(C)[C@@H](O)CCC(C)(C)[C@@H]3[C@H](O)[C@H](OC(C)=O)[C@@]2(C)O1 [Forskolin] | around 2 fold |  |  |
| CC(C)Cn1c(=O)n(C)c(=O)c2[nH]cnc21 [IBMX] | ~3 fold |  |  |
| [Cl-].[K+] [KCl, potassium chloride] | around five |  |  |
| COc1ccc(Cl)cc1C(=O)NCCc1ccc(S(=O)(=O)NC(=O)NC2CCCCC2)cc1 [glibenclamide] |  | No response |  |
| CCCCNC(=O)NS(=O)(=O)c1ccc(C)cc1 [tolbutamide] |  | No response |  |
| BMP4: growth factor BMP-4 (R&D Systems) added to SFD medium days 4-6 (protein, UniProt P12644 293-408, looked up) Bone morphogenetic protein 4: SPKHHSQRARKKNKNCRRHSLYVDFSDVGWNDWIVAPPGYQAFYCHGDCPFPLADHLNSTNHAIVQTLVNSVNSSIPKACCVPTELSAISMLYLDEYDKVVLKNYQEMVVEGCGCR |  |  | Ins1 mRNA level normalized to 18S mRNA [2]: 3.1 % of βTC6 |
